One may read the IC50 as the point on the concentration scale where inhibition reaches its midpoint. A low value points to greater potency in that assay.

The test system of test [1] is sAPPβ levels in H4 human neuroglioma cells over-expressing the wild-type human APP695. Briefly: Whole Cell Assay (In Vitro sAPPβ Assay), TMB-ELISA. The following applies: 18 hours, geometric mean of 2-3 determinations, Examples 32-34 (footnote b) single determination. The class given is cell-based. As to the method: Whole Cell Assay (In Vitro sAPPpβ Assay):
H4 human neuroglioma cells over-expressing the wild-type human APP695 are treated for 18 hours with compound in a final concentration 1% DMSO. sAPPβ levels are measured using TMB-ELISA with capture APP N-terminal antibody (Affinity BioReagents, OMA1-03132), wild-type sAPPβ specific reporter p192 (Elan), and tertiary anti rabbit-HRP (GE Healthcare).
(In general: In an ELISA, binding on a coated surface is turned into a signal by an enzyme label.)

Another test deals with BACE1 enzyme (Homo sapiens (Human), UniProt P56817). The test can be described thus: BACE1 Cell-Free Assay (fluorescence polarization, cleavage of synthetic APP substrate). As to conditions: geometric mean of 2-3 determinations; Examples 32-34 (footnote b) single determination. The class given is biochemical. An excerpt: Beta-secretase (BACE) is one of the enzymes involved in the generation of the amyloid beta peptide found in the amyloid plaques of Alzheimer's Disease patients. This assay measures the inhibition of the beta-secretase enzyme as it cleaves a non-native peptide.
Sequence of BACE1 enzyme (P56817 46-457): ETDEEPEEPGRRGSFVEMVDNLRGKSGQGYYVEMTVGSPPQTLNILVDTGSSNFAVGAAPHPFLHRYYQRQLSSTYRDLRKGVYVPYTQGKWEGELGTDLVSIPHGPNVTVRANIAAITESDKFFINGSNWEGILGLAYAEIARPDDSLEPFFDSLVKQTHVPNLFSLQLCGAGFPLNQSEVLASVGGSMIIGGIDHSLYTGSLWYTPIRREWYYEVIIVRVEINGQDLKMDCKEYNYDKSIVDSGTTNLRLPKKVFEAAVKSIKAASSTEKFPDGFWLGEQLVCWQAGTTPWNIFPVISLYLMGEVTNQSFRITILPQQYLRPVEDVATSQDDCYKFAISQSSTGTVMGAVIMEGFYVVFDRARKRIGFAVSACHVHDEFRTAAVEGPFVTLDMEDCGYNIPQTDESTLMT
A synthetic APP substrate that can be cleaved by beta-secretase having N-terminal biotin and made fluorescent by the covalent attachment of Oregon Green at the Cys residue is used to assay beta-secretase activity in the presence or absence of the inhibitory compounds. The substrate is Biotin-GLTNIKTEEISEISY^EVEFR-C[Oregon Green]KK-OH. The BACE1 enzyme is affinity purified material from conditioned media of CHO-K1 cells that have been transfected with a soluble BACE construct (BACE1deltaTM96His). Compounds are incubated in a log dose response curve from a top concentration of 100 μM with BACE1 enzyme and the biotinylated fluorescent peptide in 384-well black plates (Thermo Scientific #4318). BACE1 is at a final concentration of 0.1 nM with a final concentration of peptide substrate of 150 nM in a reaction volume of 30 μL assay buffer [100 mM sodium acetate, pH 4.5 (brought to pH with acetic acid), and 0.001% Tween-20]. Plates are covered and incubated for 3 hours at 37° C. The reaction is stopped with the addition of 30 μL of 1.5 μM Streptavidin (Pierce, #21125). After a 10 minute incubation at room temperature, plates are read on a PerkinElmer EnVision for fluorescence polarization (Ex485 nm/Em530 nm). The activity of the beta-secretase enzyme is detected by changes in the fluorescence polarization that occur when the substrate is cleaved by the enzyme.

Turning to `COCc1ccc([C@H]2C[C@H]3CSC(N)=N[C@@]3(c3ccc(F)cc3F)CO2)cc1` [Example 25, (4aR,6R,8aS)-8a-(2,4-difluorophenyl)-6-[4-(methoxymethyl)phenyl]-4,4a,5,6,8,8a-hexahydropyrano[3,4-d][1,3]thiazin-2-amine], the results for the IC50 (in test [1]; against BACE1 enzyme) were 0.01 nM and 22 nM, respectively.

With `CCOc1ccc([C@H]2C[C@H]3CSC(N)=N[C@@]3(c3ccc(F)cc3F)CO2)cc1` [Example 23, (4aR,6R,8aS)-8a-(2,4-difluorophenyl)-6-(4-ethoxyphenyl)-4,4a,5,6,8,8a-hexahydropyrano[3,4-d][1,3]thiazin-2-amine], the results for the IC50 (in test [1]; against BACE1 enzyme) were 0.021 nM and 11 nM, respectively.

With `C[C@H]1SC(N)=N[C@@]2(c3ccc(F)cc3F)CO[C@@H](c3cccc(C#N)c3)C[C@@H]12` [Example 34, (4R,4aR,6R,8aS)-8a-(2,4-Difluorophenyl)-6-(3-cyanophenyl)-4-methyl-4,4a,5,6,8,8a-hexahydropyrano[3,4-d][1,3]thiazin-2-amine], the IC50 in test [1] came to 0.004 nM; against BACE1 enzyme, 14 nM.

With `N#Cc1cccc([C@H]2C[C@H]3CSC(N)=N[C@@]3(c3ccc(F)cc3F)CO2)c1` [Example 29, 3-[(4aR,6R,8aS)-2-amino-8a-(2,4-difluorophenyl)-4,4a,5,6,8,8a-hexahydropyrano[3,4-d][1,3]thiazin-6-yl]benzonitrile], the IC50 in test [1] amounted to 0.012 nM; at BACE1 enzyme, 99 nM.

Take `COc1ccc([C@H]2C[C@H]3CSC(N)=N[C@@]3(c3ccc(F)cc3F)CO2)cc1F` [Example 19, (4aR,6R,8aS)-8a-(2,4-difluorophenyl)-6-(3-fluoro-4-methoxyphenyl)-4,4a,5,6,8,8a-hexahydropyrano[3,4-d][1,3]thiazin-2-amine]: the IC50 in test [1] turned out to be 0.023 nM; at BACE1 enzyme, 44 nM.

Take `NC1=N[C@@]2(c3ccc(F)cc3F)CO[C@@H](c3ccc4c(c3)OCO4)C[C@H]2CS1` [Example 27, (4aR,6R,8aS)-6-(1,3-benzodioxol-5-yl)-8a-(2,4-difluorophenyl)-4,4a, 5,6,8,8a-hexahydropyrano[3,4-d][1,3]thiazin-2-amine]: the results for the IC50 (in test [1]; at BACE1 enzyme) were 0.008 nM and 19 nM, respectively.

For the molecule `Cc1ccc([C@H]2C[C@H]3CSC(N)=N[C@@]3(c3ccc(F)cc3F)CO2)cc1F` [Example 9, (4aR,6R,8aS)-8a-(2,4-difluorophenyl)-6-(3-fluoro-4-methylphenyl)-4,4a,5,6,8,8a-hexahydropyrano[3,4-d][1,3]thiazin-2-amine], the figures for the IC50 (in test [1]; against BACE1 enzyme) were 0.012 nM and 13 nM, respectively.

As for `NC1=N[C@@]2(c3ccc(F)cc3F)CO[C@@H](c3ccccc3F)C[C@H]2CS1` [Example 3, (4aR,6R,8aS)-8a-(2,4-difluorophenyl)-6-(2-fluorophenyl)-4,4a,5,6,8,8a-hexahydropyrano[3,4-d][1,3]thiazin-2-amine], the results for the IC50 (in test [1]; at BACE1 enzyme) were 0.055 nM and 86 nM, respectively.

Turning to `COc1ccc(F)c([C@H]2C[C@H]3CSC(N)=N[C@@]3(c3ccc(F)cc3F)CO2)c1` [Example 22, (4aR,6R,8aS)-8a-(2,4-difluorophenyl)-6-(2-fluoro-5-methoxyphenyl)-4,4a,5,6,8,8a-hexahydropyrano[3,4-d][1,3]thiazin-2-amine], the IC50 in test [1] was 0.248 nM; against BACE1 enzyme, 397 nM.

`COc1ccc([C@H]2C[C@H]3CSC(N)=N[C@@]3(c3ccc(F)cc3F)CO2)c(F)c1` [Example 20, (4aR,6R,8aS)-8a-(2,4-difluorophenyl)-6-(2-fluoro-4-methoxyphenyl)-4,4a,5,6,8,8a-hexahydropyrano[3,4-d][1,3]thiazin-2-amine]: the IC50 in test [1] came out at 0.039 nM; at BACE1 enzyme, 83 nM.

As to `NC1=N[C@@]2(c3ccc(F)cc3F)CO[C@@H](c3cccc(C(F)(F)F)c3)C[C@H]2CS1` [Example 13, (4aR,6R,8aS)-8a-(2,4-difluorophenyl)-6-[3-(trifluoromethyl)phenyl]-4,4a,5,6,8,8a-hexahydropyrano[3,4-d][1,3]thiazin-2-amine], the IC50 was determined as 0.222 nM in test [1] and 97 nM against BACE1 enzyme.

Regarding `NC1=N[C@@]2(c3ccc(F)cc3F)CO[C@@H](c3cccc(F)c3)C[C@H]2CS1` [Example 2, (4aR,6R,8aS)-8a-(2,4-difluorophenyl)-6-(3-fluorophenyl)-4,4a,5,6,8,8a-hexahydropyrano[3,4-d][1,3]thiazin-2-amine], the IC50 in test [1] was determined as 0.009 nM; at BACE1 enzyme, 22 nM.

Turning to `Cc1ccc(F)c([C@H]2C[C@H]3CSC(N)=N[C@@]3(c3ccc(F)cc3F)CO2)c1` [Example 11, (4aR,6R,8aS)-8a-(2,4-difluorophenyl)-6-(2-fluoro-5-methylphenyl)-4,4a,5,6,8,8a-hexahydropyrano[3,4-d][1,3]thiazin-2-amine], the figures for the IC50 (in test [1]; on BACE1 enzyme) were 0.017 nM and 21 nM, respectively.

For `NC1=N[C@@]2(c3ccc(F)cc3F)CO[C@@H](c3ccc(F)cc3F)C[C@H]2CS1` [Example 4, (4aR,6R,8aS)-6,8a-bis(2,4-difluorophenyl)-4,4a,5,6,8,8a-hexahydropyrano[3,4-d][1,3]thiazin-2-amine], the IC50 in test [1] stood at 0.025 nM; against BACE1 enzyme it was 39 nM.

As for `NC1=N[C@@]2(c3ccc(F)cc3F)CO[C@@H](c3ccc(Cl)cc3)C[C@H]2CS1` [Example 12, (4aR,6R,8aS)-6-(4-chlorophenyl)-8a-(2,4-difluorophenyl)-4,4a,5,6,8,8a-hexahydropyrano[3,4-d][1,3]thiazin-2-amine], the values for the concentration for half-maximal inhibition (IC50) (in test [1]; against BACE1 enzyme) were 0.016 nM and 15 nM, respectively.

Regarding `COc1cc(F)cc([C@H]2C[C@H]3CSC(N)=N[C@@]3(c3ccc(F)cc3F)CO2)c1` [Example 21, (4aR,6R,8aS)-8a-(2,4-difluorophenyl)-6-(3-fluoro-5-methoxyphenyl)-4,4a,5,6,8,8a-hexahydropyrano[3,4-d][1,3]thiazin-2-amine], the IC50 in test [1] turned out to be 0.216 nM; against BACE1 enzyme it was 335 nM.

On to `Cc1ccccc1[C@H]1C[C@H]2CSC(N)=N[C@@]2(c2ccc(F)cc2F)CO1` [Example 7, (4aR,6R,8aS)-8a-(2,4-difluorophenyl)-6-(2-methylphenyl)-4,4a,5,6,8,8a-hexahydropyrano[3,4-d][1,3]thiazin-2-amine], for which the IC50 in test [1] is 0.665 nM; on BACE1 enzyme it was 970 nM.

As to `Cc1ccc([C@H]2C[C@H]3CSC(N)=N[C@@]3(c3ccc(F)cc3F)CO2)cc1` [Example 6, (4aR,6R,8aS)-8a-(2,4-difluorophenyl)-6-(4-methylphenyl)-4,4a,5,6,8,8a-hexahydropyrano[3,4-d][1,3]thiazin-2-amine], the IC50 worked out at 0.005 nM in test [1] and 24 nM at BACE1 enzyme.

With `COCc1cccc([C@H]2C[C@H]3CSC(N)=N[C@@]3(c3ccc(F)cc3F)CO2)c1` [Example 24, (4aR,6R,8aS)-8a-(2,4-difluorophenyl)-6-[3-(methoxymethyl)phenyl]-4,4a,5,6,8,8a-hexahydropyrano[3,4-d][1,3]thiazin-2-amine], the IC50 worked out at 0.071 nM in test [1] and 161 nM against BACE1 enzyme.

As to `NC1=N[C@@]2(c3ccc(F)cc3F)CO[C@@H](c3ccc(OC(F)(F)F)cc3)C[C@H]2CS1` [Example 15, (4aR,6R,8aS)-8a-(2,4-difluorophenyl)-6-[4-(trifluoromethoxy)phenyl]-4,4a,5,6,8,8a-hexahydropyrano[3,4-d][1,3]thiazin-2-amine], the IC50 in test [1] is 0.142 nM; on BACE1 enzyme, 21 nM.

For `COC(C)c1ccc([C@H]2C[C@H]3CSC(N)=N[C@@]3(c3ccc(F)cc3F)CO2)cc1` (stereo partly drawn) [Example 28, (4aR,6R,8aS)-8a-(2,4-difluorophenyl)-6-[4-(1-methoxyethyl)phenyl]-4,4a,5,6,8,8a-hexahydropyrano[3,4-d][1,3]thiazin-2-amine], the results for the IC50 (in test [1]; against BACE1 enzyme) were 0.055 nM and 210 nM, respectively.

These data come from patent publication US9233981B1, “Substituted phenyl hexahydropyrano[3,4-d][1,3]thiazin-2-amine compounds” (Pfizer Inc., priority 2013, dated 2016).
